# Measurements taken from US5264148A, “Moisture scavenging oxazolidines” (Angus Cheical Company, priority 1990, dated 1993).
# Read-outs that look alike come from different tables or passages of the source.
# Legend:
# [1] = tested on: skin of New Zealand White Rabbits; experiment: Primary dermal irritation (TSCA, Section 798.4470); assay type: in vivo; conditions: single topical application, TSCA guidelines
# Description: Based upon the standards of the Toxic Substances Control Act (TSCA), 40 CFR, Part 798, Subpart E, Specific Organ/Tissue Toxicity, Primary Dermal Irritation, Section 798.4470, July 1989, 2-isopropyl-4-ethyl oxazolidine was evaluated for its potential to produce primary dermal irritation after a single topical application to the skin of New Zealand White Rabbits.
# [2] = tested on: four strains of Salmonella typhimurium; experiment: Ames Mutagenicity Assay; assay type: cell-based; conditions: presence and absence of exogenous mammalian activation system
# Description: The Ames Mutagenicity Assay was performed to determine the mutagenicity of the compound. The assay evaluates the mutagenic potential of a test substance by its ability to induce back mutations at selected loci of four strains of Salmonella typhimurium in the presence and absence of an exogenous mammalian activation system.
# [3] = Acute oral toxicity (TSCA, 40 CFR Part 798, 798.1175); conditions: rat, in vivo, dose levels 1.80, 1.50 and 1.30 g/kg, male and female Sprague-Dawley rats
# Description: Based upon the standards of the Toxic Substance Control Act (TSCA), 40 CFR, Part 798, Subpart A, General Toxicity Testing, Acute Oral Toxicity, 798.1175, July 1989, 2-isopropyl-4-ethyl oxazolidine was evaluated for its potential to produce death following oral administration at dose levels of 1.80g/kg, 1.50 g/kg, and 1.30 g/kg, to male and female Sprague-Dawley rates.
# [4] = tested on: male and female New Zealand White albino rabbits; experiment: Acute dermal toxicity (TSCA, 789.1100); assay type: in vivo; conditions: topical, 2 g/Kg
# Description: Based upon the standards of the Toxic Substance Control Act (TSCA), 40 CFR, Part 798, Subpart A, General Toxicity Testing, Acute Dermal Toxicity, 789.1100, July 1989, the compound was evaluated for its potential to produce systematic toxicity or death following topical application at a dose of 2 g/Kg in male and female New Zealand White albino rabbits.
# [5] = Comparison of water-scavenging activity in pigment millbase (GC determination of remaining water)
# Source text: The water-scavenging activity of 4-ethyl-2-isopropyl oxazolidine (BBA), 1-aza-3,7-dioxo-2,8-diisopropyl-5-ethylbicyclo (3.3.0) octane (EBA), p-toluenesulfonyl isocyanate (PTSI), isophorone diisocyanate (IPDI), and sodium potassium aluminosilicate (SPAS) were compared in pigment millbase formulation. Formulations of this type are representative of pigment formulations used in moisture-curing urethane coating systems. The following millbase formulation was used: […]
# The following procedure was used to prepare the millbase. All the materials were weighed out and added under agitation into a pot. Soft Resin P-65, obtained from Mobay Corp., is a 65% synthetic (non-reactive polyester) resin in solvent Naphtha 100 and is employed as a grind aid. CAB 551, obtained from Eastman Chemical Products, Inc., Kingsport, Tenn., is cellulose acetate butyrate ester and was employed as a rheology aid. CAB 551 was dissolved in PMA. PMA is propylene glycol monomethyl ether acetate obtained from Eastman Chemical Products, Inc. The solution of CAB 551 in PMA included 33% CAB 551 by weight. Anti-Terra-U is a wetting and dispersing additive obtained from BYK-Chemie U.S.A., Wallingford Conn., and is a solution of a salt of unsaturated polyamine amides and higher molecular weight acidic esters. Ektasolve-EEP, obtained from Eastman Chemicals Products, Inc., is ethyl-3-ethoxypropionate stabilized with 2,6-di-tert-butyl- p-cresol, and was employed as a solvent. M-P-A 2000X, obtained from Rheox, Inc., Hightstown, N.J., was employed as an antisettling agent. R-960-TiO2 is a titanium dioxide pigment obtained from E.I. du Pont Nemours & Co., Inc., Wilmington, Del.
# Once the ingredients were added to the vessel they were continuously agitated until a 7 Hegman grind value was obtained for the mixture. The millbase was then heated to 60° C. A portion of the mixture was removed, and the percent of water remaining was determined using gas chromatography. Using the determined percentage of water, the minimum amount of the water-scavenger compound to be added to the millbase was calculated using the following equation:
# Minimum weight of water scavenger=wt. mb.×wt. % H2 O×(1/MW
# H2 O×mol.×MW scavenger/purity)
# The determined amount of each moisture-scavenger was added to one millbase. Six millbases were prepared. Each of the five moisture-scavengers listed above were tested in a millbase with one millbase remaining untreated as a control. Once the millbases were treated, they were mixed continuously. At 30 minutes, 60 minutes, 120 minutes, 180 minutes, 240 minutes, and 300 minutes, samples of the millbase were removed and the amount of water remaining in the millbase was determined using gas chromatography. In each trial two moles of moisture scavenger was used for every mole of water. The results of 6 trials are summarized below in Table I and graphically represented in FIG. 1.
# [6] = Acute dermal toxicity (FIFRA, 40 CFR 162); assay type: in vivo, New Zealand White Rabbits; conditions: rabbit, in vivo, topical or ocular, undiluted, male and female New Zealand White rabbits
# Description: (§1) The acute dermal toxicity of the compound was evaluated in compliance with the conditions specified in the Regulation for the Enforcement of Federal Insecticide, Fungicide and Rodenticide Act (40 CFR 162). The compound was applied undiluted to the skin of one group of five male and five female New Zealand White Rabbits at a dosage of 2.0 g/kg for 24 hours. […] Animals were weighted 7 days after treatment. At the end of the 14day observation period, the rabbits were weighed, killed, and given a gross necropsy.
# [7] = tested on: skin of male and female New Zealand White Rabbits; experiment: Acute dermal toxicity (FIFRA, 40 CFR 162); assay type: in vivo; conditions: undiluted, 2.0 g/kg for 24 hours, rabbits
# Description: as §1
# [8] = Acute oral toxicity (FIFRA, 40 CFR 162); assay type: in vivo, Sprague-Dawley derived, albino rats; conditions: rat, in vivo, undiluted, male and female Sprague-Dawley rats
# Description: (§2) The acute oral toxicity of the compound was evaluated in compliance with the conditions specified in the Regulation for the Enforcement of Federal Insecticide, Fungicide and Rodenticide Act (40 CFR 162). The compound was administered undiluted at a dosage of 5.0 g/kg to one group of five male and five female, Sprague-Dawley derived, albino rats. […] Animals were weighed seven days after treatment. At the end of the 14-day observation period, the rats were weighed, killed, and given a gross necropsy.
# [9] = tested on: male and female Sprague-Dawley derived albino rats; experiment: Acute oral toxicity (FIFRA, 40 CFR 162); assay type: in vivo; conditions: undiluted, 5.0 g/kg, rats
# Description: as §2
# [10] = tested on: eye of New Zealand White rabbits; experiment: Primary eye irritation (FIFRA, 40 CFR 162); assay type: in vivo
# Description: The primary […] irritation of the compound was evaluated in compliance with the conditions specified in the Regulation for the Enforcement of Federal Insecticide, Fungicide and Rodenticide Act (40 CFR 162). A small amount of the undiluted compound (0.1 ml) was applied to the right or left eye of six New Zealand White rabbits (one male and five females). The compound was allowed to remain without rinsing in the eyes of the animals. The eyes were graded for corneal changes, conjunctival changes, and changes in the iris one hour after application, and one, two, three, four, and seven days later.
# [11] = tested on: intact skin of New Zealand White rabbits; experiment: Primary skin irritation (FIFRA, 40 CFR 162); assay type: in vivo
# Description: The primary skin irritation of the compound was evaluated in compliance with the conditions specified in the Regulation for the Enforcement of Federal Insecticide, Fungicide and Rodenticide Act (40 CFR 162). A small amount of the compound (0.5 ml) was applied to an intact skin site on six New Zealand White rabbits (three males and three females) and allowed to remain in contact with the skin for 4 hours. The sites were scored for erythema and edema and checked for tissue damage 1/2 hour after the end of the application period (41/2 hour reading) and […] (24-hour reading) and at 48 and 72 hours.
# [12] = 2 hrs, millbase heated to 60° C., two moles of scavenger per mole of water
smiles,measurement,setting,value
"CCC1COC(C(C)C)N1 (stereo not drawn) [BBA, 4-ethyl-2-isopropyl oxazolidine]",primary dermal irritation classification,[1],moderate irritant
same,mutagenicity (Ames),[2],non-mutagenic
same,LD50,[3],1600 mg/kg
same,acute dermal toxicity classification,[4]; TSCA guidelines,non-toxic
same,acute dermal toxicity: mortality,[4]; male and female rabbits,absence of mortality
same,% H2O Remaining After 30 min.,[5],.20%
same,% H2O Remaining After 60 min.,[5],.19%
same,% H2O Remaining After 2 hrs.,[5],.13%
"CC1(C)CC(N=C=O)CC(C)(CN=C=O)C1 (stereo not drawn) [IPDI, isophorone diisocyanate, reference compound]",% H2O Remaining After 2 hrs.,[5]; [12],< .02%
"Cc1ccc(S(=O)(=O)N=C=O)cc1 [PTSI, p-toluenesulfonyl isocyanate, reference compound]",% H2O Remaining After 30 min.,"[5]; 30 min, millbase heated to 60° C., two moles of scavenger per mole of water",< .05%
same,% H2O Remaining After 60 min.,"[5]; 60 min, millbase heated to 60° C., two moles of scavenger per mole of water",< .05%
same,% H2O Remaining After 2 hrs.,[5]; [12],< .05%
CCC12COC(C(C)C)N1C(C(C)C)OC2 (stereo not drawn) [EBA],mutagenicity (Ames),[2],non-mutagenic
same,LD50 at 336 h,[6],> 2000 mg/kg
same,clinical changes,[7]; 14-day observation,No clinical changes were observed
same,deaths,[7]; 14-day observation,No deaths occurred
same,gross necropsy findings,[7]; end of 14-day observation,no significant gross changes
same,most frequently observed irritative effects,[7],erythema and desquamation
same,LD50 at 336 h,[8],> 5000 mg/kg
same,clinical changes,[9]; 14-day observation,"urine and/or fecal stains, mucoid feces, and alopecia"
same,deaths,[9]; 14-day observation,No deaths occurred
same,gross necropsy findings,[9]; end of 14-day observation,"one rat with darkened and mottled lungs, otherwise no gross changes"
same,eye irritation persistence,"[10]; 0.1 ml undiluted, without rinsing, six rabbits",irritation persisting for seven days
same,corneal opacity,"[10]; rabbit, in vivo",corneal opacity persisting for less than seven days
same,persistence of irritation,"[11]; 0.5 ml, 4 hours contact, 72 hours after application",Mild irritation persisted 72 hours after application
same,Primary Irritation Index,"[11]; rabbit, in vivo",2.7
same,tissue damage (corrosion),"[11]; rabbit, in vivo",No evidence of tissue damage (corrosion)
same,% H2O Remaining After 30 min.,[5],.08%
same,% H2O Remaining After 60 min.,[5],.08%
same,% H2O Remaining After 2 hrs.,[5],.06%
